This is an account of results in publication PMC6136712, “Ex vivo drug sensitivity testing as a means for drug repurposing in esophageal adenocarcinoma” (PLoS ONE, 2018).

Common to all, as to format: cell-based, human
Experiment [1] deals with EAC47 cells. Kind of experiment: Clonogenic survival assay. How it is done: (§1) Clonogenic assays were performed as described previously. […] Colony formation was evaluated 14 days after seeding. All experiments were performed in triplicates and two biological replicates. Statistical analyses were performed in GraphPad prism.
Experiment [2] relates to EAC42 cells. Briefly: Clonogenic survival assay. How it is done:
as §1

Experiment [3] relates to normal esophageal epithelium cell line EACN42. Kind of experiment: FDA library drug sensitivity testing (CellTiter-Glo, 72 h), normal control cells. Details: key to DSS: modified drug sensitivity score (DSSmod) from dose-response curve fit. As to conditions: EACN42 normal esophageal cells, 72 h; for pEC50: cell viability (ATP), max test concentration 10μM; for DSS: drug sensitivity score. In a few lines: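 HPV E6-E7-immortalized normal human esophageal epithelial cells, 1000 per well, exposed 72 h at 37 °C to drugs in duplicate from 10μM top concentration across a 20,000-fold range. Viability by ATP bioluminescence; DMSO wells as negative control; curves scored with modified drug sensitivity score (DSSmod).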

Experiment [4] has as its system EAC47 cells. Kind of experiment: FDA library drug sensitivity testing (CellTiter-Glo, 72 h). The essentials: (§2)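 1000 cells/well exposed 72 h at 37 °C to drugs in duplicate, top concentration 10μM over a 20,000-fold range; DMSO wells as negative controls. Viability by ATP bioluminescence (CellTiter-Glo). Curves scored with the modified drug sensitivity score (DSSmod/sDSSmod).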
(In general: ATP-based viability assays read luminescence as a measure of living cells.)

Experiment [5] has as its system EAC42 cells. Described as above. The essentials:
as §2

The subject of experiment [6] is OE33 cells. Briefly: Epigenetic compound library screen (CellTiter-Glo, 72 h). The following applies: OE33, 6μM. How it is done:
(§3) We tested a 163 compound epigenetic library that consists of inhibitors and activators of epigenetic modifying enzymes (writers, erasers and readers). All compounds were dissolved in 100% DMSO and tested in duplicate at a nominal test concentration of 6μM. Wells with assay buffer containing DMSO served as negative controls. 1000 exponentially growing cells were seeded per well in 384-well micro-titer plates and incubated in the presence of compounds in a humidified environment at 37°C and 5% CO2. After 72 hours of treatment, cell viability was assessed by measuring ATP levels via bioluminescence (CellTiter-Glo, Promega). […] Curve fitting and statistical analyses are performed in GraphPad prism.

Experiment [7] relates to Flo-1 cells. The experiment is described as above. As to conditions: Flo-1, 6μM. How it is done: as §3
Experiment [8] deals with EAC47 cells. The description is as above. As to conditions: EAC47, 6μM, 72 h. How it is done: as §3
The subject of experiment [9] is Flo-1 cells. Briefly: FDA library drug sensitivity testing (CellTiter-Glo, 72 h). As to conditions: Flo-1; sDSSmod = DSSmod (patient cells) - DSSmod (normal cells).
For experiment [10], the system named is OE33 cells. The experiment is described as above. As to conditions: OE33; sDSSmod = DSSmod (patient cells) - DSSmod (normal cells). In a few lines: as §2
The next experiment concerns OE19 cells. The experiment is described as above. As to conditions: sDSSmod = DSSmod (patient cells) - DSSmod (normal cells). In a few lines: as §2
Setting [11] is: Homo sapiens, read-out: % cell killing /control.

pEC50: −log10 of the molar value. Where a SMILES comes first, the peptide text is derived from it. [ ]: non-standard residue; d: D form. ξ: configuration not given here. Aoe(9ξ) = N[C@@H](CCCCCC(=O)C1CO1)C(=O)O; dPip = O=C(O)[C@H]1CCCCN1

As for `N.N.[Cl][Pt][Cl]` [Cisplatin], the clonogenic survival with EAC47 cells [1] (EAC47, 10μM cisplatin for 24h) worked out at 95.75%; in the experiment on EAC47 cells [1] (EAC47, 50μM cisplatin for 24h) it was 28.64%; with EAC42 cells [2] (EAC42, 10μM cisplatin for 24h) it was 89.19%; with EAC42 cells [2] (EAC42, 50μM cisplatin for 24h), 50.1%. For the same compound, the “treatment response in words” value in [3] is “minimal treatment effects”. Moreover, in [3], the pEC50 (as a rule, −log10 of the EC50, conventionally taken in molar units) was 8.00. In experiment [3], this compound registered a DSS of 0. Also, the “reduction of cell survival in words” value with EAC47 cells [4] (EAC47, concentration of 10μM) is on record as “did not result in a reduction of cell survival”; with EAC42 cells [5] (EAC42, concentration of 10μM), “did not result in a reduction of cell survival”.

As for `O=C(CCCCC[C@@H]1NC(=O)[C@H]2CCCCN2C(=O)[C@H](Cc2ccccc2)NC(=O)[C@H](Cc2ccccc2)NC1=O)C1CO1` (some centres unmarked) [Trapoxin A] (cyclo(FF[dPip][Aoe(9ξ)])), the cytotoxicity at 6 µM with OE33 cells [6] (setting [11]) amounted to 98.9%; in the experiment on Flo-1 cells [7] (setting [11]), 96.4%; in the experiment on EAC47 cells [8] (setting [11]) it was 102%.

For `Cn1cc(CNCC2CCN(c3ncc(C(=O)NO)cn3)CC2)c2ccccc21` [JNJ-26481585], the “% cell killing /control” value with OE33 cells [6] is given as 99.54%; in the experiment with Flo-1 cells [7], 98.39%; in the experiment on EAC47 cells [8], 113.73%.

`Nc1ccn([C@@H]2O[C@H](CO)[C@@H](O)C2(F)F)c(=O)n1` [Gemcitabine]: the clonogenic survival in the experiment with EAC47 cells [1] (EAC47, 10nM gemcitabine for 2h, colonies after 14 days) was determined as 63.28%; in the experiment with EAC42 cells [2] (EAC42, 10nM gemcitabine for 2h, colonies after 14 days) it was 59.26%. Further, the sDSSmod with Flo-1 cells [9] was -5; with OE33 cells [10] it was 9.443; with OE19 cells it was -16.819; in the experiment on EAC47 cells [4] (EAC47, sDSSmod = DSSmod (patient cells) - DSSmod (normal cells)), 8.407; in the experiment on EAC42 cells [5] (EAC42, sDSSmod = DSSmod (patient cells) - DSSmod (normal cells)), 14.66. For the same compound, the pEC50 in experiment [3] was 6.49; in the experiment with EAC47 cells [4] (Homo sapiens, EAC47, assay not stated explicitly, taken as DST screen, read-out: calculated EC50) it was 7.97; in the experiment with EAC42 cells [5] (Homo sapiens, EAC42, assay not stated explicitly, taken as DST screen, read-out: calculated EC50) it was 8.18. Also, in experiment [3], the DSS was 17.72.
